In patent US20040127492A1 (Pharmacia Corporation, priority 2002, published 2004):
Where two headings read alike, the source gives them in different places.

Columns and labels:
MAPKAPK2 (MK-2) = MAPKAPK2 (MK-2) (Homo sapiens, UniProt P49137); assay: Determination of MK-2 IC50 (HSP-peptide phosphorylation, anion exchange resin capture assay); type: biochemical
Outline: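 MAPKAPK2, preactivated by p38α with 0.25 mM ATP for 1 h at 30° C, used at 15 nM to phosphorylate HSP-peptide with 0.03 mM ATP plus [γ33P]ATP, pH 7.5, 2% DMSO, 30 min at 30° C. Labelled peptide counted after anion-exchange resin capture; IC50 from six ten-fold dilutions, triplicate.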

MK-3 = MK-3 (Homo sapiens, UniProt Q16644); assay: MK-3 inhibition IC50 (similar method to MK-2, with appropriate modifications); type: biochemical; conditions: read-out: MK-3 Avg. IC50
Procedure: In practice, the selectivity of a cyclic pyrazole MK-2 inhibitor varies depending upon the condition under which the test is performed and on the inhibitors being tested. However, for the purposes of this specification, the selectivity of a cyclic pyrazole MK-2 inhibitor inhibitor can be measured as a ratio of the in vitro or in vivo IC50 value for inhibition of MK-3, divided by the IC50 value for inhibition of MK-2 (IC50 MK-3/IC50 MK-2). […] The MK-2 or MK-3 inhibiting activity of any of the compounds described herein can be determined by any one of several methods that are well known to those having skill in the art of enzyme activity testing. […] A similar method, with appropriate modifications, Can be used to measure MK-3 inhibitory activity. In addition, the efficacy of one of the present MK-2 inhibiting compounds in therapeutic applications can be determined by testing for inhibition of TNFα production in cell culture and in animal model assays.

[1] = Table 2, pyrazolylpyrazole MK-2 inhibitors, read-out: MK-2 Avg. IC50
[2] = Table 2, pyrazolylpyrazole MK-2 inhibitors
[3] = Table 5, other cyclic pyrazole MK-2 inhibiting compounds, read-out: MK-2 Avg. IC50
[4] = Table 5, other cyclic pyrazole MK-2 inhibiting compounds
[5] = Table 1, phenoxypyrazole MK-2 inhibitors, read-out: MK-2 Avg, IC50
[6] = Table 1, phenoxypyrazole MK-2 inhibitors

Sequence of MK-3 (Q16644 whole entry, species assumed): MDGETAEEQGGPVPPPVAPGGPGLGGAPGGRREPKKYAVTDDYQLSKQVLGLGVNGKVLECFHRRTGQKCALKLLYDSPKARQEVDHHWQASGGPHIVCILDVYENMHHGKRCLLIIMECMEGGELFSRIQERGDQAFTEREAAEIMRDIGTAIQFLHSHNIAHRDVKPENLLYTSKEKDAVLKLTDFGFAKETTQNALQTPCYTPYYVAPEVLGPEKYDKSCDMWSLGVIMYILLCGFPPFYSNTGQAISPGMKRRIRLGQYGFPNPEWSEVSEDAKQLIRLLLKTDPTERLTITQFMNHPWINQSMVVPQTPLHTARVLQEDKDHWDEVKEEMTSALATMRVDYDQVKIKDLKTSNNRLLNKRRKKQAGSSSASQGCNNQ
Sequence of MAPKAPK2 (MK-2) (P49137 whole entry, species assumed): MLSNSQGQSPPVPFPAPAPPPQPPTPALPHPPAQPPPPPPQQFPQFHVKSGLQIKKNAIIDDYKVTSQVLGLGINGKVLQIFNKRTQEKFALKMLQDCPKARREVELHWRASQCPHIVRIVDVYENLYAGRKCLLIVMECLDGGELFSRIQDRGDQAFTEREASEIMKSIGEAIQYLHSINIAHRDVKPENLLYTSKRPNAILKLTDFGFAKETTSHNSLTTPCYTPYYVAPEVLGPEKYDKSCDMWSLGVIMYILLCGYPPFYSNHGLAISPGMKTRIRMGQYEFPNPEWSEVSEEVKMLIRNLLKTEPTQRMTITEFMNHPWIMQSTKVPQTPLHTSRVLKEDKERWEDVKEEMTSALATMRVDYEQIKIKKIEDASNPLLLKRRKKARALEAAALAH

IC50 (MAPKAPK2 (MK-2); [1])	IC50 (MK-3; [2])	IC50 (MAPKAPK2 (MK-2); read-out: MK-2 Avg. IC50)	IC50 (MK-3)	also measured	SMILES
55.3 µM	≥ 200 µM	–	–	–	CCOC(=O)c1c2c(nn1CCCN)-c1c(SC)n[nH]c1CC2 [Example 20]
–	–	0.622 µM	26.1 µM	–	CS(=O)(=O)c1ccc(CCCNCCCn2nc3c(c2C(=O)O)CCc2cnccc2-3)cc1 [Example 65]
150 µM	≥ 200 µM	–	–	–	O=C(O)c1c2c(nn1CC(F)(F)F)-c1cn[nH]c1CC2 [Example 41]
–	–	0.245 µM	16.1 µM	–	CC(C)c1cccc(-c2ccc(CCNCCCn3nc4c(c3C(=O)O)CCc3cnccc3-4)cc2)c1 [Example 40]
≥ 200 µM	≥ 200 µM	–	–	–	N#CCCn1nc(C(N)=O)c2c1-c1cn[nH]c1CC2 [Example 67]
–	–	2.33 µM	48.1 µM	–	COc1ccc(CCNCCCn2nc3c(c2C(=O)O)CCc2cnccc2-3)cc1OC [Example 100]
≥ 200 µM	≥ 200 µM	–	–	–	CCOC(=O)c1[nH]nc2c1CCc1c-2cnn1C [Example 50]
–	–	0.0194 µM	0.55 µM	–	NCCCn1nc2c(c1C(=O)O)CCc1cnc(-c3cccc(O)c3)cc1-2 [Example 4]
–	–	–	–	IC50 (MAPKAPK2 (MK-2); [3]): 0.223 µM; IC50 (MK-3; [4]): > 20 µM	O=C1NCCn2nc3c(c21)CCc1cnc(/C=C/c2ccc4c(c2)OCO4)cc1-3 [Example 4]
–	–	0.0296 µM	0.269 µM	–	NCCCn1nc2c(c1C(=O)O)CCc1cnc(-c3ccc4c(c3)OCO4)cc1-2 [Example 7]
–	–	–	–	IC50 (MAPKAPK2 (MK-2); [5]): 165 µM; IC50 (MK-3; [6]): > 200 µM	COc1cc2c(cc1-c1ccncc1)-c1nn(CCCNC(=O)OC(C)(C)C)c(C(=O)O)c1CC2 [Example 67]
180 µM	≥ 200 µM	–	–	–	O=C(O)c1nn(CC(F)(F)F)c2c1CCc1[nH]ncc1-2 [Example 42]
–	–	–	–	IC50 (MAPKAPK2 (MK-2); [5]): 28.3 µM; IC50 (MK-3; [6]): > 200 µM	O=C(O)c1[nH]nc2c1CCc1cc(O)c(O)cc1-2 [Example 28]
–	–	–	–	IC50 (MAPKAPK2 (MK-2); [5]): > 200 µM; IC50 (MK-3; [6]): > 200 µM	COC(=O)c1nn(-c2ccc(S(C)(=O)=O)cc2)c2c1CCc1cc(OC)ccc1-2 [Example 164]
–	–	0.074 µM	1.15 µM	–	NCCCn1nc2c(c1C(=O)O)CCc1cnc(Nc3ccccc3)cc1-2 [Example 16]
–	–	0.185 µM	9.61 µM	–	O=C(O)c1c2c(nn1CCCNCCc1ccc(-c3ccccc3Cl)cc1)-c1ccncc1CC2 [Example 32]

IC50 (MAPKAPK2 (MK-2); [1])	IC50 (MK-3; [2])	IC50 (MAPKAPK2 (MK-2); read-out: MK-2 Avg. IC50)	IC50 (MK-3)	also measured	SMILES
–	–	–	–	IC50 (MAPKAPK2 (MK-2); [5]): > 200 µM; IC50 (MK-3; [6]): > 200 µM	CCOC(=O)c1nn(-c2ccccc2)c2c1CCc1cc(OC)c(OC)cc1-2 [Example 168]
10.8 µM	55.6 µM	–	–	–	C=CCSc1n[nH]c2c1-c1nn3c(c1CC2)C(=O)NCCC3 [Example 12]
–	–	–	–	IC50 (MAPKAPK2 (MK-2); [3]): 0.749 µM; IC50 (MK-3; [4]): > 20 µM	O=C1NCCn2nc3c(c21)CCc1cnc(/C=C/c2ccc(F)cc2)cc1-3 [Example 8]
8.54 µM	68.1 µM	–	–	–	CCOC(=O)c1c2c(nn1CCCNCCc1ccc(Br)cc1)-c1cn[nH]c1CC2 [Example 9]
46.5 µM	≥ 200 µM	–	–	–	O=C(O)c1nn(C2CCN(C(=O)OCc3ccccc3)CC2)c2c1CCc1c-2cnn1C(c1ccccc1)(c1ccccc1)c1ccccc1 [Example 19]
≥ 200 µM	≥ 200 µM	–	–	–	O=C(O)CCn1nc(C(=O)O)c2c1-c1cn[nH]c1CC2 [Example 100]
–	–	0.269 µM	15.7 µM	–	O=C(O)c1c2c(nn1CCCNCCc1cccs1)-c1ccncc1CC2 [Example 41]
–	–	35.6 µM	3.3 µM	–	O=C1NCCn2nc3c(c21)CCc1cnc(N2CCSCC2)cc1-3 [Example 203]
≥ 200 µM	≥ 200 µM	–	–	–	CNC(=O)c1nn(-c2ccc(S(N)(=O)=O)cc2)c2c1CCc1c-2cnn1Cc1ccccc1 [Example 48]
–	–	–	–	IC50 (MAPKAPK2 (MK-2); [5]): > 200 µM; IC50 (MK-3; [6]): > 200 µM	CCN(CC)CCNC(=O)c1nn(-c2ccc(Cl)cc2)c2c1CCc1cc(OC)ccc1-2 [Example 171]
114 µM	≥ 200 µM	–	–	–	O=C(O)c1[nH]nc2c1CCc1c-2cnn1CCO [Example 30]
2.43 µM	63.3 µM	–	–	–	NCCn1nc2c(c1C(=O)O)CCc1[nH]ncc1-2 [Example 4]
–	–	0.603 µM	12.6 µM	–	CC(=O)c1ccc(CCCNCCCn2nc3c(c2C(=O)O)CCc2cnccc2-3)cc1 [Example 63]
–	–	–	–	IC50 (MAPKAPK2 (MK-2); [5]): 150 µM; IC50 (MK-3; [6]): > 200 µM	COCCOCOc1ccc2c(c1)CCc1c-2n[nH]c1C(=O)O [Example 61]
–	–	0.0796 µM	2.18 µM	–	O=C(O)c1ccc(-c2ccc(CCNCCCn3nc4c(c3C(=O)O)CCc3cnccc3-4)cc2)cc1 [Example 18]
